Measurements from patent US7691564B2, “Heterotrimeric G-protein” (The Johns Hopkins University, priority 2000, dated 2010).
Like-named read-outs stand apart in the source and are kept apart here.

Tests used:
[1] = tested on: G-protein heterotrimer (Gα2-CFP:Gβ-YFP) linked to cAMP chemoattractant receptors; test: FRET loss in living α2-CFP:β-YFP cells (fluorimeter); assay type: cell-based, D. discoideum; settings: for EC50: read-out: EC50 for decrease of the FRET signal
Procedure: (§1) FIGS. 2A to 2E. Fluorescence spectra of cell lines. (FIG. 2A) Developed cells were excited in a Spex Fluoromax-2 fluorimeter at 440 nm and emission was collected between 460 nm and 600 nm and processed as described (14). Gα2-CFP/g α2^− cells (“α2-CFP”), α2-CFP: β-YFP cells (“α2-CFP: -YFP”), and mixture of equal number of Ga-2-CFP/gα2^− and G β-YFP/g βcells (“mixed cells”). […] Cells were scanned at selected time points following addition of the stimulus. […] Mean intensities were calculated in IPLab Spectrum by manually circumscribing the membrane of multiple cells. […] Arrows indicate the frame at which the stimulus was added. (FIG. 2E) Difference images of consecutive frames of one captured at 3 second intervals were calculated in IPLab Spectrum. […] Calibration bar is 10 μm.
FIGS. 3A to 3B. […] Data was processed as described (34). […] Data from two independent experiments were averaged for each curve.
We excited living, differentiated cells at 440 nm and recorded the emission spectrum between 460 and 600 nm.
• 1. A. G. Gilman, Annu Rev Biochem 56, 615-49 (1987). • 2. H. E. Hamm, J Biol Chem 273, 669-72 (1998). • 3. C. A. Parent, B. J. Blacklock, W. M. Froehlich, D. B. Murphy, P. N. Devreotes, Cell 95, 81-91 (1998). • 4. Z. Xiao, N. Zhang, D. B. Murphy, P. N. Devreotes, J Cell Biol 139, 365-74 (1997). • 5. G. Servant et al., Science 287, 1037-40 (2000). • 6. T. Jin, N. Zhang, Y. Long, C. A. Parent, P. N. Devreotes, Science 287, 1034-6 (2000). • 7. R. Heim, R. Y. Tsien, Curr Biol 6, 178-82 (1996). • 8. The coding region of the β-YFP fusion protein was cloned into the CV5 vector. CV5 was derived from p88 by addition of an actin 15/expression cassette from pMC34 (3). • 9. D. G. Lambright et al., Nature 379, 311-9 (1996). • 10. M. A. Wall et al., Cell 83, 1047-58 (1995) • 11. A. Kumagai et al., Cell 57, 265-75 (1989). • 12. The gene encoding CFP was inserted into a Spe1 site after residue 90, in the loop between the αA and the αB helices, of the Gα2 cDNA. The SpeI site also added a threonine and serine residue at the N and C terminal loundaries of the insertion. This fusion was cloned into the CV5 vector. The gα2^− cells were transformed, and individual G418 resistant clones were selected. […] Equal amounts of plasmids carrying the Gα2-CFP and Gβ-YFP fusions were mixed, transformed into gα2 cells, and individual G418 resistant clones were selected.

[2] = tested on: G-protein heterotrimer (Gα2-CFP:Gβ-YFP) in α-CFP:β-YFP cells; settings: saturating dose, within 6 seconds
Procedure: as §1

[3] = biological target: T1, G-protein heterotrimer (Gα2-CFP:Gβ-YFP) (Dictyostelium discoideum, UniProt P16051, INS90[…]); test: FRET signal in membranes prepared from α-CFP:β-YFP cells; assay type: biochemical, D. discoideum
T1 construct: expressed in transfected cells; host or cells: D. discoideum gα2-null cells (α-CFP:β-YFP cells), CV5 vector, G418-selected clones; living cells in A1 and A3, membranes prepared from them in A4

[4] = tested on: PH-domain recruitment to membranes; test: PH domain (PHCRAC-GFP) binding to membranes in cell lysates; assay type: biochemical, D. discoideum
Procedure: FIGS. 4A to 4C. Continuous activation of the G-protein cycle. […] (FIG. 4B) Receptor regulation of PH domain translocation. […] After 2 minutes membranes were collected and binding of the PHCRAC-GFP was assessed by immunoblot analysis using antibodies to GFP (22). (FIG. 4C) Assessment of cAR1 phosphorylation.

cAR1 = biological target: T2, cAR1 (Dictyostelium discoideum, UniProt P13773); settings: cited from earlier work; for Kd: literature ref 16, read-out: reported binding affinity (average KD)
T2 sequence (P13773 1-392): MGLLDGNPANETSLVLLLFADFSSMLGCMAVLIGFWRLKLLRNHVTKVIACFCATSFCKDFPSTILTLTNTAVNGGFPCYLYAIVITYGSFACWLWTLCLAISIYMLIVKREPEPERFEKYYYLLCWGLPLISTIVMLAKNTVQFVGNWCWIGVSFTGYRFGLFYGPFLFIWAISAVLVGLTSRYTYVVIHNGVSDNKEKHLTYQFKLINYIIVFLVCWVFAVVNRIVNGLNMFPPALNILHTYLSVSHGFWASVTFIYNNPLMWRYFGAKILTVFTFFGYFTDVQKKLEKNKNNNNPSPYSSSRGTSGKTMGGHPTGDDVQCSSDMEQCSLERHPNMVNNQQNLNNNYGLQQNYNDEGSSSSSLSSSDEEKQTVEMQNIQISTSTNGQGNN

[5] = α2-CFP:β-YFP cells, caffeine treated, 10 mM dithiothreitol

**Q.** Which results are given for `Nc1ncnc2c1ncn2C1OC2COP(=O)(O)OC2C1O` (stereo not shown) [cAMP, cyclic adenosine 3′, 5′ phosphate]?
**A.** FRET signal remaining, % of the initial value [1]: ~20%; change in FRET after adjusting to 10 μM [1]: further decrease in FRET; decrease of the FRET signal [1]: approximately 70%; duration of activation [1]: Activation did not subside; response as % of the maximum [1]: 90%; time for the FRET signal to return to its maximal level [1]: within two minutes; time to maximal response after stimulation [1]: ≤ 10 s; EC50 [1]: ~10 nM; decrease of the membrane FRET signal [2]: about 15%

**Q.** Which “FRET signal of membranes” value ([3]; GTPγS alone (data not shown)) does the source give for `Nc1nc2c(ncn2[C@@H]2O[C@H](COP(=O)(O)OP(=O)(O)OP(O)(O)=S)[C@@H](O)[C@H]2O)c(=O)[nH]1` [GTPγS] here?
**A.** not with GTPγS alone

**Q.** What about the “FRET signal of membranes” value ([3]; Mg++ plus GTPγS (data not shown)) of the same molecule?
**A.** disappeared

**Q.** And the “binding of PH-domains to membranes” value ([4]; lysates from adapted cells (cAMP 15 minutes))?
**A.** this response was lost

**Q.** And the “binding of PH-domains to membranes” value ([4]; lysates from naive cells)?
**A.** stimulated the binding of PH-domains to membranes

**Q.** What does the source list for `Nc1ncnc2c1ncn2[C@@H]1O[C@H](COP(=O)(O)O)[C@@H](O)[C@H]1O` [5′-AMP]?
**A.** effect on the FRET signal ([1]; 1 mM): no effect on the FRET signal; binding to cAR1 (cAR1): does not bind to cAR1

**Q.** What does the source list for `Nc1ncnc2c1nc(Br)n2[C@@H]1O[C@@H]2COP(=O)(O)O[C@H]2[C@H]1O` [8-Br-cAMP]?
**A.** EC50 [1, 5]: ~2000 nM; Kd (cAR1): ~32000 nM

**Q.** What does the source list for `Nc1ncnc2c1ncn2C1CC2OP(=O)(O)OCC2O1` (stereo not shown) [2′-dcAMP]?
**A.** EC50 [1, 5]: ~20 nM; Kd (cAR1): ~1000 nM
